Source: patent US20070128217A1 (priority 2003, published 2007)

How the values were obtained:
[1] = test system: antibodies in sera from SARS patients (sera 1a, 1b, 2, 6, 37, 62, London, SARS-yellow, SARS-green); type: binding, human; parameters: Binding of serum 6 to linear peptides of protein X1 of SARS-CoV Urbani / Binding of serum 37 to linear peptides of protein X1 of SARS-CoV Urbani / Binding of serum 6 to looped/cyclic peptide (PEPSCAN-ELISA) / Binding of serum 37 to looped/cyclic peptide (PEPSCAN-ELISA) / Binding of serum 37 to looped/cyclic peptides of protein X1 of SARS-CoV Urbani / Binding of serum 6 to linear peptides of protein X2 / Binding of serum 37 to linear peptides of protein X2 / Binding of serum 37 to looped/cyclic peptides of protein X2 of SARS-CoV Urbani / Binding of serum 6 to linear peptides of protein M of SARS-CoV Urbani / Binding of serum 37 to linear peptides of protein M of SARS-CoV Urbani / Binding of serum 6 to looped/cyclic peptides of protein M of SARS-CoV Urbani / Binding of serum 37 to looped/cyclic peptides of protein M of SARS-CoV Urbani / Binding of serum 6 to linear peptides of protein X3 of SARS-CoV Urbani / Binding of serum 37 to linear peptides of protein X3 of SARS-CoV Urbani / Binding of serum 37 to looped/cyclic peptides of protein X3 of SARS-CoV Urbani / Binding of serum 6 to linear peptides of protein X4 of SARS-CoV Urbani / Binding of serum 37 to linear peptides of protein X4 of SARS-CoV Urbani / Binding of serum 37 to looped/cyclic peptides of protein X4 of SARS-CoV Urbani / Binding of serum 6 to linear peptides of protein X5 of SARS-CoV Urbani / Binding of serum 37 to linear peptides of protein X5 of SARS-CoV Urbani / Binding of serum 37 to looped/cyclic peptides of protein X5 of SARS-CoV Urbani / Binding of serum 6 to linear peptides of protein N of SARS-CoV Urbani / Binding of serum 37 to linear peptides of protein N of SARS-CoV Urbani / Binding of serum 6 to linear peptide (PEPSCAN-ELISA) / Binding of serum 1a to looped/cyclic peptides of protein N of SARS-CoV Urbani / Binding of serum 1b to looped/cyclic peptides of protein N of SARS-CoV Urbani / Binding of serum 2 to looped/cyclic peptides of protein N of SARS-CoV Urbani / Binding of serum 6 to looped/cyclic peptides of protein N of SARS-CoV Urbani / Binding of serum 37 to looped/cyclic peptides of protein N of SARS-CoV Urbani / Binding of serum 62 to looped/cyclic peptides of protein N of SARS-CoV Urbani / Binding of serum London to looped/cyclic peptides of protein N of SARS-CoV Urbani / Binding of serum SARS-green to looped/cyclic peptides of protein N of SARS-CoV Urbani: unit not given here
[2] = test system: rabbit serum obtained by immunizing a rabbit with the SARS-CoV strain Frankfurt 1; type: binding; parameters: Binding of a rabbit serum to linear peptides / Binding of a rabbit serum to looped peptides / Rabbit serum linear peptides / Rabbit serum looped peptides / Binding of a rabbit serum to linear peptides of protein N of SARS-CoV Urbani (Rabbit serum linear peptides) / Binding of a rabbit serum to looped/cyclic peptides of protein N of SARS-CoV Urbani (Rabbit serum looped peptides): unit not given here
[3] = test system: control sera (pooled serum of ten healthy LUMC hospital workers; commercial negative donor pooled serum from the Dutch bloodbank); type: binding, human; parameters: Binding of Control serum LUMC to linear peptides / Binding of Control serum Blood-bank to linear peptides / Binding of Control serum LUMC to looped peptides / Binding of Control Serum Blood-Bank to Looped peptides / Binding of Control serum LUMC to linear peptides of the protein M of SARS-CoV Urbani / Binding of Control serum Blood-bank to linear peptides of the protein M of SARS-CoV Urbani / Binding of Control serum LUMC to looped peptides of the protein M of SARS-CoV Urbani / Binding of Control Serum Blood-Bank to Looped peptides of the protein M of SARS-CoV Urbani: unit not given here

## ACRTIMRCWLCWKCK
[1]
  Binding of serum 1a to looped/cyclic peptide (PEPSCAN-ELISA): 0.7
  Binding of serum 1b to looped/cyclic peptide (PEPSCAN-ELISA): 0.9
  Binding of serum 2 to looped/cyclic peptide (PEPSCAN-ELISA): 0.6
  Binding of serum 6 to looped/cyclic peptide (PEPSCAN-ELISA): 0.3
  Binding of serum 37 to looped/cyclic peptide (PEPSCAN-ELISA): 0.8
  Binding of serum 62 to looped/cyclic peptide (PEPSCAN-ELISA): 0.5
  Binding of serum London to looped/cyclic peptide (PEPSCAN-ELISA): 0.2
  Binding of serum SARS-green to looped/cyclic peptide (PEPSCAN-ELISA): 1.2
  Binding of serum SARS-yellow to looped/cyclic peptide (PEPSCAN-ELISA): 0.7

## AGTHITMTTVYHITV
[2]
  Binding of a rabbit serum to linear peptides: 0.7
  Binding of a rabbit serum to looped peptides: 0.5

## ASPASTVHATATIPL
[2]
  Binding of a rabbit serum to linear peptides: 1.4
  Binding of a rabbit serum to looped peptides: 0.5

## ASTVHATATIPLQAS
[2]
  Binding of a rabbit serum to linear peptides: 0.9
  Binding of a rabbit serum to looped peptides: 0.6

## CPSGTYEGNSPFHPL
[3]
  Binding of Control Serum Blood-Bank to Looped peptides: 0.8
  Binding of Control serum Blood-bank to linear peptides: 0.7
  Binding of Control serum LUMC to linear peptides: 0.6
  Binding of Control serum LUMC to looped peptides: 0.8

## GFQFICNLLLLFVTI
[1]
  Binding of serum 1a to linear peptides of protein X1 of SARS-CoV Urbani: 0.6
  Binding of serum 1a to looped/cyclic peptide (PEPSCAN-ELISA): 0.5
  Binding of serum 1b to linear peptides of protein X1 of SARS-CoV Urbani: 0.5
  Binding of serum 1b to looped/cyclic peptide (PEPSCAN-ELISA): 0.3
  Binding of serum 2 to linear peptides of protein X1 of SARS-CoV Urbani: 0.5
  Binding of serum 2 to looped/cyclic peptide (PEPSCAN-ELISA): 0.3
  Binding of serum 6 to linear peptides of protein X1 of SARS-CoV Urbani: 0.4
  Binding of serum 6 to looped/cyclic peptide (PEPSCAN-ELISA): 0.3
  Binding of serum 37 to linear peptides of protein X1 of SARS-CoV Urbani: 0.5
  Binding of serum 37 to looped/cyclic peptide (PEPSCAN-ELISA): 0.5
  Binding of serum 62 to linear peptides of protein X1 of SARS-CoV Urbani: 0.6
  Binding of serum 62 to looped/cyclic peptide (PEPSCAN-ELISA): 0.5
  Binding of serum London to linear peptides of protein X1 of SARS-CoV Urbani: 0.3
  Binding of serum London to looped/cyclic peptide (PEPSCAN-ELISA): 0.2
  Binding of serum SARS-green to linear peptides of protein X1 of SARS-CoV Urbani: 0.2
  Binding of serum SARS-green to looped/cyclic peptide (PEPSCAN-ELISA): 0.2
  Binding of serum SARS-yellow to linear peptides of protein X1 of SARS-CoV Urbani: 0.5
  Binding of serum SARS-yellow to looped/cyclic peptide (PEPSCAN-ELISA): 0.4
[3]
  Binding of Control Serum Blood-Bank to Looped peptides: 0.4
  Binding of Control serum Blood-bank to linear peptides: 0.4
  Binding of Control serum LUMC to linear peptides: 0.5
  Binding of Control serum LUMC to looped peptides: 0.5

## HRWHTMVQTGTPNVT
[3]
  Binding of Control Serum Blood-Bank to Looped peptides: 0.4
  Binding of Control serum Blood-bank to linear peptides: 0.8
  Binding of Control serum LUMC to linear peptides: 0.4
  Binding of Control serum LUMC to looped peptides: 0.4

## KQLLEQWNLVIGFLF
[1]
  Binding of serum 1a to linear peptides of protein M of SARS-CoV Urbani: 0.7
  Binding of serum 1a to looped/cyclic peptides of protein M of SARS-CoV Urbani: 0.7
  Binding of serum 1b to linear peptides of protein M of SARS-CoV Urbani: 0.6
  Binding of serum 1b to looped/cyclic peptides of protein M of SARS-CoV Urbani: 0.6
  Binding of serum 2 to linear peptides of protein M of SARS-CoV Urbani: 0.4
  Binding of serum 2 to looped/cyclic peptides of protein M of SARS-CoV Urbani: 0.5
  Binding of serum 6 to linear peptides of protein M of SARS-CoV Urbani: 0.3
  Binding of serum 6 to looped/cyclic peptides of protein M of SARS-CoV Urbani: 1.0
  Binding of serum 37 to linear peptides of protein M of SARS-CoV Urbani: 0.3
  Binding of serum 37 to looped/cyclic peptides of protein M of SARS-CoV Urbani: 0.5
  Binding of serum 62 to linear peptides of protein M of SARS-CoV Urbani: 0.4
  Binding of serum 62 to looped/cyclic peptides of protein M of SARS-CoV Urbani: 0.7
  Binding of serum London to linear peptides of protein M of SARS-CoV Urbani: 0.3
  Binding of serum London to looped/cyclic peptides of protein M of SARS-CoV Urbani: 0.3
  Binding of serum SARS-green to linear peptides of protein M of SARS-CoV Urbani: 0.4
  Binding of serum SARS-green to looped/cyclic peptides of protein M of SARS-CoV Urbani: 0.4
  Binding of serum SARS-yellow to linear peptides of protein M of SARS-CoV Urbani: 0.2
  Binding of serum SARS-yellow to looped/cyclic peptides of protein M of SARS-CoV Urbani: 0.8
[3]
  Binding of Control Serum Blood-Bank to Looped peptides of the protein M of SARS-CoV Urbani: 0.6
  Binding of Control serum Blood-bank to linear peptides of the protein M of SARS-CoV Urbani: 0.5
  Binding of Control serum LUMC to linear peptides of the protein M of SARS-CoV Urbani: 0.6
  Binding of Control serum LUMC to looped peptides of the protein M of SARS-CoV Urbani: 0.7

## LACPVLAAVYRINWV
[3]
  Binding of Control Serum Blood-Bank to Looped peptides of the protein M of SARS-CoV Urbani: 0.7
  Binding of Control serum Blood-bank to linear peptides of the protein M of SARS-CoV Urbani: 0.7
  Binding of Control serum LUMC to linear peptides of the protein M of SARS-CoV Urbani: 0.6
  Binding of Control serum LUMC to looped peptides of the protein M of SARS-CoV Urbani: 0.7

## LCKHKKVSTNLGTHS
[1]
  Binding of serum 1a to looped/cyclic peptides of protein X2 of SARS-CoV Urbani: 0.3
  Binding of serum 1b to looped/cyclic peptides of protein X2 of SARS-CoV Urbani: 0.4
  Binding of serum 2 to looped/cyclic peptides of protein X2 of SARS-CoV Urbani: 0.3
  Binding of serum 6 to looped/cyclic peptides of protein X2 of SARS-CoV Urbani: 0.3
  Binding of serum 37 to looped/cyclic peptides of protein X2 of SARS-CoV Urbani: 0.3
  Binding of serum 62 to looped/cyclic peptides of protein X2 of SARS-CoV Urbani: 0.4
  Binding of serum London to looped/cyclic peptides of protein X2 of SARS-CoV Urbani: 0.3
  Binding of serum SARS-green to looped/cyclic peptides of protein X2 of SARS-CoV Urbani: 0.3
  Binding of serum SARS-yellow to looped/cyclic peptides of protein X2 of SARS-CoV Urbani: 0.5

## LLIQQWTQFMMSRRR
[3]
  Binding of Control Serum Blood-Bank to Looped peptides: 0.6
  Binding of Control serum Blood-bank to linear peptides: 0.5
  Binding of Control serum LUMC to linear peptides: 0.4
  Binding of Control serum LUMC to looped peptides: 0.5

## QLALYKGFQPICNLL
[1]
  Binding of serum 1a to linear peptides of protein X1 of SARS-CoV Urbani: 0.6
  Binding of serum 1b to linear peptides of protein X1 of SARS-CoV Urbani: 0.5
  Binding of serum 2 to linear peptides of protein X1 of SARS-CoV Urbani: 0.4
  Binding of serum 6 to linear peptides of protein X1 of SARS-CoV Urbani: 0.5
  Binding of serum 37 to linear peptides of protein X1 of SARS-CoV Urbani: 0.6
  Binding of serum 62 to linear peptides of protein X1 of SARS-CoV Urbani: 0.6
  Binding of serum London to linear peptides of protein X1 of SARS-CoV Urbani: 0.2
  Binding of serum SARS-green to linear peptides of protein X1 of SARS-CoV Urbani: 0.2
  Binding of serum SARS-yellow to linear peptides of protein X1 of SARS-CoV Urbani: 0.5

## RTLSYYKLGASQPVG
[3]
  Binding of Control Serum Blood-Bank to Looped peptides of the protein M of SARS-CoV Urbani: 0.6
  Binding of Control serum Blood-bank to linear peptides of the protein M of SARS-CoV Urbani: 0.9
  Binding of Control serum LUMC to linear peptides of the protein M of SARS-CoV Urbani: 0.8
  Binding of Control serum LUMC to looped peptides of the protein M of SARS-CoV Urbani: 0.8

## TLGSITAQPVKTDNA
[3]
  Binding of Control Serum Blood-Bank to Looped peptides: 0.6
  Binding of Control serum Blood-bank to linear peptides: 0.5
  Binding of Control serum LUMC to linear peptides: 0.7
  Binding of Control serum LUMC to looped peptides: 0.6

## WQLALYKGFQFTCNL
[3]
  Binding of Control Serum Blood-Bank to Looped peptides: 0.6
  Binding of Control serum Blood-bank to linear peptides: 0.6
  Binding of Control serum LUMC to linear peptides: 0.6
  Binding of Control serum LUMC to looped peptides: 0.7
